# Measured values from PMC9414684, “Quantitative Structure–Neurotoxicity Assessment and In Vitro Evaluation of Neuroprotective and MAO-B Inhibitory Activities of Series N′-substituted 3-(1,3,7-trimethyl-xanthin-8-ylthio)propanehydrazides” (Molecules, 2022).
# Experiments:
# [1] = system: isolated rat synaptosomes; assay: 6-OHDA-induced oxidative stress model, GSH level; format: cell-based; conditions: for GSH levels stored (protected): 6-OHDA-induced oxidative stress, against the toxic agent
# Experimental: The level of reduced glutathione was determined by measuring the non-protein SH-groups after precipitation of the proteins with trichloroacetic acid. After the incubation, synaptosomes were centrifuged at 400× g for 3 min. These diment were treated with 5% trichloroacetic acid and left for 10 min on ice. Samples were centrifuged at 8000× g for 10 min (2 °C). The supernatant was removed to determine the level of GSH and was stored at −20 °C. Immediately before the measurement, the samples were neutralized with 5 N NaOH.
# The presence of thiols in the supernatant was determined using Ellman’s reagent. The resulting yellow color was measured spectrophotometrically at λ = 412 nm.
# This in vitro model resembles the neurodegenerative processes occurring in PD. Dopamine metabolism and oxidation lead to the formation of ROS and reactive quinones. They induce dopamine neurotoxicity and neurodegeneration. The synaptosomes were incubated with 150 μmol 6-OHDA for 1 h.
# [2] = system: isolated rat brain synaptosomes; assay: Synaptosomal viability (MTT test), compounds applied alone; format: cell-based; conditions: 100 µmol; for relative synaptosomal vitality (RV): synaptosomal viability relative to caffeine (1) = 1; for decrease of synaptosomal viability: applied alone, against the control (untreated synaptosomes); for neurotoxicity on synaptosomes in words: single application, compared to the control and to caffeine
# Experimental: (§1) The synaptosomes and mitochondria were prepared as explained in [54, 55] with the help of a colloidal silicon solution (Percoll): 1. Preparation of 90% stock solution of Percoll. 2. Preparation of Percoll solutions with two concentrations, 16% and 10%. An amount of 4 ml of Percoll 16% and 10% were added in the tubes. 3. An amount of 90% Percoll (7.5% Percoll) was added to the sediment from the last centrifugation. The tubes were centrifuged for 20 min at 15,000× g at 4 °C, resulting in the formation of three layers. The lower layer contained mitochondria, the upper layer, lipids and the middle layer (between 16% and 10% Percoll), synaptosomes. The middle and the lower layers of each tube were harvested and buffer B with glucose was added. The mixture was centrifuged at 10,000× g for 20 min at 4 °C. After centrifugation, the sediment with the synaptosomes and mitochondria was mixed with buffer B with glucose.
# After the incubation, the synaptosomes were centrifuged three times at 15,000× g for 1 min. An MTT test was performed to determine synaptosomal vitality by the method described in the literature. […]
# [3] = system: isolated rat synaptosomes; assay: 6-OHDA-induced oxidative stress model, synaptosomal vitality; format: cell-based; conditions: against the toxic agent
# Experimental: After the incubation, the synaptosomes were centrifuged three times at 15,000× g for 1 min. An MTT test was performed to determine synaptosomal vitality by the method described in the literature [56]. […] The synaptosomes were incubated with 150 μmol 6-OHDA for 1 h [58].
# [4] = system: isolated rat brain microsomes; assay: MDA production in isolated brain microsomes, compounds applied alone; format: cell-based; conditions: 100 µmol; for pro-oxidant effect (MDA production): applied alone, compared to the control (untreated microsomes); for neurotoxicity on microsomes in words: tested alone, compared to the control and to caffeine
# Experimental: The brain microsomes were prepared according to the procedure described in [61]. […] The homogenate was centrifugated at 17,000× g for 30 min. The pellet was suspended in 4 vol of the homogenization buffer and centrifuged at 17,000× g for a further period of 30 min. The supernatants from both centrifugations were combined (post-mitochondrial supernatant) and centrifuged at 100,000× g for 1 h. The pellet was resuspended in the above buffer and centrifuged at 100,000× g for 1 h. The resulting pellet was frozen in the buffer with glycerol.
# The quantity of the lipid peroxidation product MDA was assessed, using the method, described in the literature.
# Analysis of quantitative structure–neurotoxicity relationships employed the data from in vitro assessments of synaptosome viability (%) and MDA production in microsomal fractions (nmol/0.1 mg protein) as indicators for the neurotoxicity of compounds.
# [5] = system: isolated rat brain mitochondria; assay: MDA production in isolated brain mitochondria, compounds applied alone; format: cell-based; conditions: 100 µmol, against the control (untreated mitochondria)
# Experimental: The synaptosomes and mitochondria were prepared as explained in [54, 55] with the help of a colloidal silicon solution (Percoll): 1. […] An amount of 4 ml of Percoll 16% and 10% were added in the tubes. 3. An amount of 90% Percoll (7.5% Percoll) was added to the sediment from the last centrifugation. The tubes were centrifuged for 20 min at 15,000× g at 4 °C, resulting in the formation of three layers. The lower layer contained mitochondria, the upper layer, lipids and the middle layer (between 16% and 10% Percoll), synaptosomes. The middle and the lower layers of each tube were harvested and buffer B with glucose was added. The mixture was centrifuged at 10,000× g for 20 min at 4 °C. After centrifugation, the sediment with the synaptosomes and mitochondria was mixed with buffer B with glucose. […] After that, the tubes were maintained in a bath filled with boiling water. Finally, the tubes were transferred to an ice bath and butanol (0.4 mL) was poured into each tube. In the next stage, centrifugation of the tubes was carried out at 3500× g for 10 min. Following that, assessment of the total quantity of MDA shaped in each sample was carried out using a spectrophotometer (UV-Vis Split) to measure the supernatant’s absorbance at 532 nm. The mitochondria were incubated with 75 µmol t-BuOOH [59]. The quantity of the lipid peroxidation product MDA was assessed, using the method, described in the literature.
# [6] = biological target: T1, human recombinant MAO-B enzyme (hMAOB) (Homo sapiens, UniProt P27338); assay: Monoamine oxidase B activity, fluorimetric Amplex Ultra Red assay, tyramine substrate; format: biochemical; conditions: 1 µmol, applied alone, against the control (pure hMAOB)
# T1 sequence (P27338 1-520): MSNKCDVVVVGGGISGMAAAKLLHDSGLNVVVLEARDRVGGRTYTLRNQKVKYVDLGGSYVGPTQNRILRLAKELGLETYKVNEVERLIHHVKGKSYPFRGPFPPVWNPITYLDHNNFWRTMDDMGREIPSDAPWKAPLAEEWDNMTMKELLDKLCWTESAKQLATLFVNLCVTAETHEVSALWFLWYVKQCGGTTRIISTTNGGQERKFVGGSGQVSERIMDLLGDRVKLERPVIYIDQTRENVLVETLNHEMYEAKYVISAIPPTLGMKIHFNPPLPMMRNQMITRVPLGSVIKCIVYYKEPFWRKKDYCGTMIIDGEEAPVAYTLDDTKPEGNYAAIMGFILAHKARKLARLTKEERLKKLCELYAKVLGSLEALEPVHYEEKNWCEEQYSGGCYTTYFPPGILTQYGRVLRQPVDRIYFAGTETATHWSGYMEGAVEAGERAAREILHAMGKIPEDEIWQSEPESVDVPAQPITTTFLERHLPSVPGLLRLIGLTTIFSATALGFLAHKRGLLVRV
# Experimental: Monoamine oxidase activity assay of recombinant human MAO-B was performed using a fluorimetric method by Amplex Ultra Redreagent [63]. Tyramine hydrochloride was used as substrate.
# The MAO-B activity was normalized as a percentage of the untreated control set as 100% and the results were expressed as mean values and standard deviation (±SD). Statistical analysis was performed by one-way analysis of variance (ANOVA) with a post hoc multiple comparisons procedure (Dunnet’s test) to assess the statistical differences in case of normal distribution. Values of p < 0.05, p < 0.01 and p < 0.001 were considered as statistically significant.
# isolated rat microsomes = assay: Fe2+/AA-induced lipid peroxidation model, MDA production; format: cell-based; conditions: 100 µmol, compared to the toxic agent
# Experimental: The microsomes were pre-incubated with the analyzed compounds for 15 min at 37 °C. The reaction was started with a solution of iron sulphate 20 μmol and ascorbic acid 0.5 mmol. […] After starting the reaction, the LPO and the MDA quantity was assessed [62].
# The quantity of the lipid peroxidation product MDA was assessed, using the method, described in the literature [62].
# [7] = system: isolated rat brain mitochondria; assay: GSH level in isolated brain mitochondria, compounds applied alone; format: cell-based; conditions: 100 µmol, against the control (untreated mitochondria)
# Experimental: as §1
# The DNTB spectrophotometric technique explained in [60] was applied for GSH content measurement in brain mitochondria. Then, 0.04% DTNB was mixed with the mitochondrial suspensions (0.5 mg protein/mL) in 0.1 mol/L of phosphate buffers (pH 7.4). The development of the yellow color was read at 412 nm (spectrophotometer UV-Vis Split).
# MAO-B = biological target: MAO-B; design: method as in PMID 19342233; conditions: MAO-B inhibitor activity; cited from earlier work
structure (smiles),measurement,setting,value
"NCCc1cc(O)c(O)cc1O [6-OHDA, 6-hydroxydopamine, reference compound]",decrease of GSH levels by the toxic agent,"[1]; 6-OHDA applied alone (150 μmol, 1 h), against the control (untreated synaptosomes)",50%
Cn1c(=O)c2c(nc(SCCC(=O)NN=Cc3ccccc3)n2C)n(C)c1=O [6a],relative synaptosomal vitality (RV),[2],0.743
Cn1c(=O)c2c(nc(SCCC(=O)NN=Cc3ccc([N+](=O)[O-])cc3)n2C)n(C)c1=O [6b],relative synaptosomal vitality (RV),[2],0.703
Cn1c(=O)c2c(nc(SCCC(=O)NN=Cc3c(Cl)cccc3Cl)n2C)n(C)c1=O [6c],relative synaptosomal vitality (RV),[2],0.689
Cn1c(=O)c2c(nc(SCCC(=O)NN=Cc3cccc(Cl)c3)n2C)n(C)c1=O [6d],relative synaptosomal vitality (RV),[2],0.730
Cn1c(=O)c2c(nc(SCCC(=O)NN=Cc3ccc(Br)cc3)n2C)n(C)c1=O [6e],relative synaptosomal vitality (RV),[2],0.743
Cn1c(=O)c2c(nc(SCCC(=O)NN=Cc3ccc(C(F)(F)F)cc3)n2C)n(C)c1=O [6f],relative synaptosomal vitality (RV),[2],0.757
COc1ccc(C=NNC(=O)CCSc2nc3c(c(=O)n(C)c(=O)n3C)n2C)cc1OC [6g],relative synaptosomal vitality (RV),[2],0.716
COc1cc(C=NNC(=O)CCSc2nc3c(c(=O)n(C)c(=O)n3C)n2C)cc(OC)c1OC [6h],relative synaptosomal vitality (RV),[2],0.703
COc1cc(C=NNC(=O)CCSc2nc3c(c(=O)n(C)c(=O)n3C)n2C)cc(OC)c1O [6i],relative synaptosomal vitality (RV),[2],0.743
COc1cc(C=NNC(=O)CCSc2nc3c(c(=O)n(C)c(=O)n3C)n2C)ccc1O [6j],relative synaptosomal vitality (RV),[2],0.730
"COc1cccc(C=NNC(=O)CCSc2nc3c(c(=O)n(C)c(=O)n3C)n2C)c1OC [6k, N′-(2,3-dimethoxybenzylidene)-3-(1,3,7-trimethyl-2,6-dioxo-2,3,6,7-tetrahydro-1H-purin-8-ylthio)propanehydrazide]",decrease of synaptosomal viability,[2],29%
same,neurotoxicity on synaptosomes in words,[2],lowest neurotoxicity
same,relative synaptosomal vitality (RV),[2],0.959
same,protection of synaptosomal vitality,[3],20%
same,GSH levels stored (protected),[1],20%
same,pro-oxidant effect (MDA production),[4],did not show any statistically significant pro-oxidant effect
same,neurotoxicity on microsomes in words,[4],lowest neurotoxicity
same,change of MDA production,[5],did not change statistically significantly
same,inhibition of hMAOB activity,[6],25%
same,reduction of MDA production,isolated rat microsomes,38%
"Cn1c(=O)c2c(nc(SCCC(=O)NN=Cc3ccccc3O)n2C)n(C)c1=O [6l, N′-(2-hydroxybenzylidene)-3-(1,3,7-trimethyl-2,6-dioxo-2,3,6,7-tetrahydro-1H-purin-8-ylthio)propanehydrazide]",decrease of synaptosomal viability,[2],28%
same,neurotoxicity on synaptosomes in words,[2],lowest neurotoxicity
same,relative synaptosomal vitality (RV),[2],0.973
same,protection of synaptosomal vitality,[3],36%
same,GSH levels stored (protected),[1],42%
same,pro-oxidant effect (MDA production),[4],did not show any statistically significant pro-oxidant effect
same,neurotoxicity on microsomes in words,[4],lowest neurotoxicity
same,neurotoxic effect on GSH level,[7],did not show any statistically significant neurotoxic effect
same,change of MDA production,[5],did not change statistically significantly
same,inhibition of hMAOB activity,[6],30%
same,reduction of MDA production,isolated rat microsomes,50%
Cc1cc(C)c(C=NNC(=O)CCSc2nc3c(c(=O)n(C)c(=O)n3C)n2C)c(C)c1 [6m],relative synaptosomal vitality (RV),[2],0.716
COc1cccc(C=NNC(=O)CCSc2nc3c(c(=O)n(C)c(=O)n3C)n2C)c1O [6n],relative synaptosomal vitality (RV),[2],0.689
Cn1c(=O)c2c(nc(SCCC(=O)NN=Cc3cccc([N+](=O)[O-])c3)n2C)n(C)c1=O [6o],relative synaptosomal vitality (RV),[2],0.757
"Cn1c(=O)c2c(ncn2C)n(C)c1=O [compound 1, caffeine, reference compound]",decrease of synaptosomal viability,[2],26%
same,neurotoxicity on synaptosomes in words,[2],lowest neurotoxicity
same,GSH levels stored (protected),[1],30%
same,pro-oxidant effect (MDA production),[4],did not show any statistically significant pro-oxidant effect
same,neurotoxicity on microsomes in words,[4],lowest neurotoxicity
same,change of MDA production,[5],did not change statistically significantly
same,Ki,MAO-B,3.6 mM
